Patent EP1337551B1, “SUBSTANCE P ANALOGS FOR THE TREATMENT OF CANCER” (DABUR PHARMA LTD., priority 2000, dated 2002)
Residues, ends and D or L forms follow the SMILES beside them.

How the values were obtained:
L132 (lung) = assay: In vitro cytotoxic activity, MTT assay, 72 hours; format: cell-based, human
Protocol: (§1) The cytotoxic activity of synthesized peptides was tested on six human tumor cell lines namely MCF7 (breast), U373 (glioblastoma), PTC, (colon), L132 (lung), Su.86.86 (pancreas), and KB (oral). The tumor cells were collected at exponential growth phase and resuspended in medium (1.5 x 10^6 cells/ml in RPMI 1640 containing 10% FBS). 150µL of medium was added to the wells of a 96-well tissue culture plate (Nunc, Denmark) followed by 30µl of cell suspension. The plate was left in an incubator (37°C, 5% CO2) overnight. 20µl of the peptide (100 pM to 10 µM concentration) was added to marked wells of the 96-well plate. Each concentration was plated in triplicate. 20µl of medium alone was added to control wells while wells without cells served as blanks. A total volume of 200µL was ensured in each well and plate was left in incubator (37°C, 5% CO2). After 72 hours of incubation an MTT assay was performed and percentage cytotoxicity was calculated with respect to control cells.

MCF7 (breast) = assay: In vitro cytotoxic activity, MTT assay, 72 hours; format: cell-based, human
Protocol: as §1

PTC, (colon) = assay: In vitro cytotoxic activity, MTT assay, 72 hours; format: cell-based, human
Protocol: as §1

Su.86.86 (pancreas) = assay: In vitro cytotoxic activity, MTT assay, 72 hours; format: cell-based, human
Protocol: as §1

U373 (glioblastoma) = assay: In vitro cytotoxic activity, MTT assay, 72 hours; format: cell-based, human
Protocol: as §1

ECV304 (Endothelial) = assay: In vitro cytotoxic activity of lipo conjugates, MTT assay, 48 hours; format: cell-based
Protocol: (§2) The cytotoxic effect of lipo-conjugates of substance P analogs SEQ ID NO: 6, SEQ ID NO: 7 and SEQ ID NO: 8, was studied by MTT assay which is based on the principle of uptake of MTT [3-[4,5-dimethylthiazol-2-yl]-2,5-diphenyl tetrazolium bromide], a tetrazolium salt by the metabolically active cells where it is metabolized by active mitochondria in to a blue colored formazan product which can be read spectrophotometrically. Briefly, tumor cells - KB (Oral squamous), U87MG (Blioblastoma), HBL100 (Breast), HeP2 (Larngeal), ECV304 (Endothelial), PA-1 (Ovary) and L132 (Lunng) were incubated with the peptide analogs for 48 hours at 37°C in a 96-well culture plate, followed by the addition of 100 µg MTT and further incubation of 1 hour. The formazan crystals formed inside the cells were dissolved with a detergent comprising of 10% Sodium dodecyl sulfate and 0.01 N HCl and optical density read on a multiscan ELISA reader. The optical density was directly proportional to the number of proliferating and metabolically active cells. SEQ ID NO: 6

HBL100 (Breast) = assay: as above; format: cell-based
Protocol: as §2

HeP2 (Larngeal) = assay: as above; format: cell-based
Protocol: as §2

KB (Oral squamous) = assay: as above; format: cell-based
Protocol: as §2

L132 (Lunng) = assay: as above; format: cell-based
Protocol: as §2

PA-1 (Ovary) = assay: as above; format: cell-based
Protocol: as §2

U87MG (Blioblastoma) = assay: as above; format: cell-based
Protocol: as §2

CC(C)C[C@H](NC(=O)[C@@H](Cc1c[nH]c2ccccc12)NC(=O)[C@H](Cc1ccccc1)NC(=O)[C@@H](Cc1c[nH]c2ccccc12)NC(=O)[C@H](CCC(N)=O)NC(=O)[C@@H](Cc1ccccc1)NC(=O)[C@@H]1CCCN1C(=O)[C@H](CCCCN)NC(=O)[C@@H]1CCCN1C(=O)[C@H](N)CCCNC(=N)N)C(=O)NC1(C(N)=O)CCCC1 [SEQ ID NO: 5, D-Arg-Pro-Lys-Pro-D-Phe-Gln-D-Trp-Phe-D-Trp-Leu-Ac5c-NH2] (HELM PEPTIDE1{[dR].P.K.P.[dF].Q.[dW].F.[dW].L.[O=C(C1(N[*:1])CCCC1)[*:2]].[am]}$$$$V2.0)
Percentage cytotoxicity at different concentrations (L132 (lung); 100pM): 18±3.4% | Percentage cytotoxicity at different concentrations (L132 (lung); 1nM): 15 ± 5.8% | Percentage cytotoxicity at different concentrations (L132 (lung); 10nM): 19 ± 3.3% | Percentage cytotoxicity at different concentrations (L132 (lung); 100nM): 21 ± 1.2% | Percentage cytotoxicity at different concentrations (L132 (lung); 1µM): 20 ± 2.3% | Percentage cytotoxicity at different concentrations (L132 (lung); 10µM): 23 ± 2.3% | Percentage cytotoxicity at different concentrations (MCF7 (breast); MCF-7, 100pM): Nil | Percentage cytotoxicity at different concentrations (MCF7 (breast); MCF-7, 1nM): 2.4 ± 1.2% | Percentage cytotoxicity at different concentrations (MCF7 (breast); MCF-7, 10nM): 7.5 ± 1.5% | Percentage cytotoxicity at different concentrations (MCF7 (breast); MCF-7, 100nM): 8.6 ± 1.6% | Percentage cytotoxicity at different concentrations (MCF7 (breast); MCF-7, 1µM): 12.4 ± 2.6% | Percentage cytotoxicity at different concentrations (MCF7 (breast); MCF-7, 10µM): 18.4 ± 6.4% | Percentage cytotoxicity at different concentrations (PTC, (colon); 100pM): Nil | Percentage cytotoxicity at different concentrations (PTC, (colon); 1nM): 3.1 ± 0.5% | Percentage cytotoxicity at different concentrations (PTC, (colon); 10nM): 3.1 ± 1.9% | Percentage cytotoxicity at different concentrations (PTC, (colon); 100nM): 6.7 ± 1.3% | Percentage cytotoxicity at different concentrations (PTC, (colon); 1µM): 25.5 ± 4.8% | Percentage cytotoxicity at different concentrations (PTC, (colon); 10µM): 35.5 ± 4.8% | Percentage cytotoxicity at different concentrations (Su.86.86 (pancreas); Su8686, 100pM): Nil | Percentage cytotoxicity at different concentrations (Su.86.86 (pancreas); Su8686, 1nM): 3 ± 0.3% | Percentage cytotoxicity at different concentrations (Su.86.86 (pancreas); Su8686, 10nM): 12 ± 2.8% | Percentage cytotoxicity at different concentrations (Su.86.86 (pancreas); Su8686, 100nM): 9 ± 3.8% | Percentage cytotoxicity at different concentrations (Su.86.86 (pancreas); Su8686, 1µM): 22 ± 3.3% | Percentage cytotoxicity at different concentrations (Su.86.86 (pancreas); Su8686, 10µM): 25 ± 4.3% | Percentage cytotoxicity at different concentrations (U373 (glioblastoma); 100pM): 3.7± 0.5% | Percentage cytotoxicity at different concentrations (U373 (glioblastoma); 1nM): 3.1 ± 0.5% | Percentage cytotoxicity at different concentrations (U373 (glioblastoma); 10nM): 5.0 ± 0.7% | Percentage cytotoxicity at different concentrations (U373 (glioblastoma); 100nM): 4.5 ± 0.5% | Percentage cytotoxicity at different concentrations (U373 (glioblastoma); 1µM): 17.06 ± 1.9% | Percentage cytotoxicity at different concentrations (U373 (glioblastoma); 10µM): 37.2 ± 5.3%

CC(=O)N[C@H](CCCNC(=N)N)C(=O)N1CCC[C@H]1C(=O)N[C@@H](CCCCN)C(=O)N1CCC[C@H]1C(=O)N[C@H](Cc1ccccc1)C(=O)N[C@@H](CCC(N)=O)C(=O)N[C@H](Cc1c[nH]c2ccccc12)C(=O)N[C@@H](Cc1ccccc1)C(=O)N[C@H](Cc1c[nH]c2ccccc12)C(=O)N[C@@H](CC(C)C)C(=O)NC1(C(N)=O)CCCC1 [SEQ ID NO: 6, Acetyl-D-Arg-Pro-Lys-Pro-D-Phe-Gln-D-Trp-Phe-D-Trp-Leu-Ac5c-NH2] (HELM PEPTIDE1{[ac].[dR].P.K.P.[dF].Q.[dW].F.[dW].L.[O=C(C1(N[*:1])CCCC1)[*:2]].[am]}$$$$V2.0)
Percentage cytotoxicity at different concentrations (ECV304 (Endothelial); 1nM): 9.0 ± 3.7% | Percentage cytotoxicity at different concentrations (ECV304 (Endothelial); 10nM): 13.8 ± 3.3% | Percentage cytotoxicity at different concentrations (ECV304 (Endothelial); 100nM): 15.9 ± 2.3% | Percentage cytotoxicity at different concentrations (ECV304 (Endothelial); 1µM): 12.9 ± 2.2% | Percentage cytotoxicity at different concentrations (HBL100 (Breast); 1nM): 28.5 ± 4.5% | Percentage cytotoxicity at different concentrations (HBL100 (Breast); 10nM): 28.4 ± 1.8% | Percentage cytotoxicity at different concentrations (HBL100 (Breast); 100nM): 31.8 ± 1.5% | Percentage cytotoxicity at different concentrations (HeP2 (Larngeal); 1nM): 10.0 ± 3.2% | Percentage cytotoxicity at different concentrations (HeP2 (Larngeal); 10nM): 14.8 ± 4.4% | Percentage cytotoxicity at different concentrations (HeP2 (Larngeal); 100nM): 24.9 ± 1.5% | Percentage cytotoxicity at different concentrations (HeP2 (Larngeal); 1µM): 13.8 ± 2.4% | Percentage cytotoxicity at different concentrations (KB (Oral squamous); 1nM): 28.0 ± 2.3% | Percentage cytotoxicity at different concentrations (KB (Oral squamous); 10nM): 29.0 ± 1.3% | Percentage cytotoxicity at different concentrations (KB (Oral squamous); 100nM): 18.0 ± 2.6% | Percentage cytotoxicity at different concentrations (KB (Oral squamous); 1µM): 2.0 ± 1.3% | Percentage cytotoxicity at different concentrations (L132 (Lunng); 1nM): 14.9 ± 2.9% | Percentage cytotoxicity at different concentrations (L132 (Lunng); 10nM): 24.7 ± 3.2% | Percentage cytotoxicity at different concentrations (L132 (Lunng); 100nM): 19.5 ± 4.6% | Percentage cytotoxicity at different concentrations (L132 (Lunng); 1µM): 19.7 ± 2.5% | Percentage cytotoxicity at different concentrations (PA-1 (Ovary); 1nM): 8.0 ± 24% | Percentage cytotoxicity at different concentrations (PA-1 (Ovary); 10nM): 22.0 ± 3.4% | Percentage cytotoxicity at different concentrations (PA-1 (Ovary); 100nM): 25.4 ± 2.6% | Percentage cytotoxicity at different concentrations (PA-1 (Ovary); 1µM): 13.9 ± 3.3% | Percentage cytotoxicity at different concentrations (U87MG (Blioblastoma); 1nM): 26.9 ± 3.5% | Percentage cytotoxicity at different concentrations (U87MG (Blioblastoma); 10nM): 32.9 ± 2.4% | Percentage cytotoxicity at different concentrations (U87MG (Blioblastoma); 100nM): 34.7 ± 1.9% | Percentage cytotoxicity at different concentrations (U87MG (Blioblastoma); 1µM): 31.8 ± 3.2%

CCCCCCCC(=O)N[C@H](CCCNC(=N)N)C(=O)N1CCC[C@H]1C(=O)N[C@@H](CCCCN)C(=O)N1CCC[C@H]1C(=O)N[C@H](Cc1ccccc1)C(=O)N[C@@H](CCC(N)=O)C(=O)N[C@H](Cc1c[nH]c2ccccc12)C(=O)N[C@@H](Cc1ccccc1)C(=O)N[C@H](Cc1c[nH]c2ccccc12)C(=O)N[C@@H](CC(C)C)C(=O)NC1(C(N)=O)CCCC1 [SEQ ID NO: 8, Octanoyl-D-Arg-Pro-Lys-Pro-D-Phe-Gln-D-Trp-Phe-D-Trp-Leu-Ac5c-NH2] (HELM PEPTIDE1{[CCCCCCCC(=O)[*:2]].[dR].P.K.P.[dF].Q.[dW].F.[dW].L.[O=C(C1(N[*:1])CCCC1)[*:2]].[am]}$$$$V2.0)
Percentage cytotoxicity at different concentrations (ECV304 (Endothelial); 1nM): 16.9 ± 3.5% | Percentage cytotoxicity at different concentrations (ECV304 (Endothelial); 10nM): 31.9 ± 3.3% | Percentage cytotoxicity at different concentrations (ECV304 (Endothelial); 100nM): 24.6 ± 2.3% | Percentage cytotoxicity at different concentrations (ECV304 (Endothelial); 1µM): 17.9 ± 2.4% | Percentage cytotoxicity at different concentrations (HBL100 (Breast); 1nM): 9.0 ± 4.5% | Percentage cytotoxicity at different concentrations (HBL100 (Breast); 10nM): 28.6 ± 3.8% | Percentage cytotoxicity at different concentrations (HBL100 (Breast); 100nM): 30.6 ± 1.5% | Percentage cytotoxicity at different concentrations (HBL100 (Breast); 1µM): 25.8 ± 1.4% | Percentage cytotoxicity at different concentrations (HeP2 (Larngeal); 1nM): 12.5 ± 3.2% | Percentage cytotoxicity at different concentrations (HeP2 (Larngeal); 10nM): 15.5 ± 4.4% | Percentage cytotoxicity at different concentrations (HeP2 (Larngeal); 100nM): 24.9 ± 2.5% | Percentage cytotoxicity at different concentrations (HeP2 (Larngeal); 1µM): 12.9 ± 3.4% | Percentage cytotoxicity at different concentrations (KB (Oral squamous); 1nM): 28.0 ± 3.5% | Percentage cytotoxicity at different concentrations (KB (Oral squamous); 10nM): 29.0% | Percentage cytotoxicity at different concentrations (KB (Oral squamous); 100nM): 23.0 ± 3.2% | Percentage cytotoxicity at different concentrations (KB (Oral squamous); 1µM): 19.0 ± 4.3% | Percentage cytotoxicity at different concentrations (L132 (Lunng); 1nM): 11.9 ± 4.9% | Percentage cytotoxicity at different concentrations (L132 (Lunng); 10nM): 27.5 ± 3.5% | Percentage cytotoxicity at different concentrations (L132 (Lunng); 100nM): 16.9 ± 3.6% | Percentage cytotoxicity at different concentrations (L132 (Lunng); 1µM): 18.6 ± 2.4% | Percentage cytotoxicity at different concentrations (PA-1 (Ovary); 1nM): 22.1 ± 3.4% | Percentage cytotoxicity at different concentrations (PA-1 (Ovary); 10nM): 26.9 ± 3.4% | Percentage cytotoxicity at different concentrations (PA-1 (Ovary); 100nM): 39.0 ± 2.6% | Percentage cytotoxicity at different concentrations (PA-1 (Ovary); 1µM): 34.4 ± 3.4% | Percentage cytotoxicity at different concentrations (U87MG (Blioblastoma); 1nM): 23.9 ± 3.3% | Percentage cytotoxicity at different concentrations (U87MG (Blioblastoma); 10nM): 33.9 ± 2.2% | Percentage cytotoxicity at different concentrations (U87MG (Blioblastoma); 100nM): 28.9 ± 1.4% | Percentage cytotoxicity at different concentrations (U87MG (Blioblastoma); 1µM): 21.8 ± 3.4%
